Reference: patent US20190085289A1, “COMPOSITIONS AND METHODS FOR PATHOGEN INACTIVATION OF PLATELETS” (Cerus Corporation, priority 2017, published 2019)

What was measured:
[1] = Stability of S-59 in InterSol PAS under ambient light (HPLC); format: physicochemical; details: S-59 230 μM in InterSol PAS, room temp
Protocol: Initial studies evaluated stability of the pathogen inactivation compound amotosalen (S-59) that was formulated in a platelet additive solution (PAS). A 230 μM solution of psoralen compound S-59 (Irsch et al., Transfus Med Hemother, 38: 19-31 (2011)) was prepared in the commercially available PAS solution InterSol® (Fenwal Inc.) and maintained at room temperature under ambient light conditions. HPLC analysis was performed on samples at times listed in Table 1 for both S-59 and photoproducts. […] S-59 data are shown as both concentration (μM), as well as peak area (S-59 UV) for relative comparison to any photoproducts detected with HPLC (Table 1). Peak D and Peak E photoproducts also were observed by 22 hr and 72 hr, respectively, as well as process impurity decomposition product 4′-HMT, with peak area values indicated (Table 1).

[2] = Stability of S-59 in InterSol PAS protected from ambient light (HPLC); format: physicochemical; details: S-59 230 μM in InterSol PAS, room temp, protected from light
Protocol: Additional studies evaluated stability of the S-59 (amotosalen) pathogen inactivation compound formulated in a platelet additive solution (PAS), but protected from ambient light exposure. A 230 μM solution of S-59 was prepared in the commercially available PAS solution InterSol® (Fenwal Inc.) and maintained at room temperature protected from ambient light conditions. HPLC analysis was performed on samples at times listed in Table 2 for both S-59 and photoproducts.

In the case of `Cc1oc2c(C)c3oc(=O)cc(C)c3cc2c1CO` [4′-HMT], the “4′-HMT UV peak area (HPLC)” value ([1]; 5 hr) is reported as 5.624, the “4′-HMT UV peak area (HPLC)” value ([1]; 6 hr) is reported as 5.090 and the “4′-HMT UV peak area (HPLC)” value ([1]; 22 hr) is reported as 5.125. For the same compound, the “4′-HMT UV peak area (HPLC)” value ([1]; 30 hr) was 5.334, the “4′-HMT UV peak area (HPLC)” value ([1]; 47 hr) was 4.954 and the “4′-HMT UV peak area (HPLC)” value ([1]; 56 hr) was 4.742. For the same compound, the “4′-HMT UV peak area (HPLC)” value ([1]; 72 hr) was 4.839, the “4′-HMT UV peak area (HPLC)” value ([1]; 78 hr) was 4.793 and the “4′-HMT UV peak area (HPLC)” value ([1]; T 0) was 4.924. The “4′-HMT UV peak area (HPLC)” value ([2]; 5.5 hr) was 3.7162, the “4′-HMT UV peak area (HPLC)” value ([2]; 21.5 hr) was 4.3525 and the “4′-HMT UV peak area (HPLC)” value ([2]; 28.5 hr) was 3.8628. For the same compound, the “4′-HMT UV peak area (HPLC)” value ([2]; 44 hr) was 4.0199, the “4′-HMT UV peak area (HPLC)” value ([2]; 45.5 hr) was 4.4036 and the “4′-HMT UV peak area (HPLC)” value ([2]; 53 hr) was 4.0582. For the same compound, the “4′-HMT UV peak area (HPLC)” value ([2]; 77 hr) was 4.4268 and the “4′-HMT UV peak area (HPLC)” value ([2]; T 0) was 3.8849.
